Laboratory results reported in patent US10189782B2, “Derivatives of indole for the treatment of cancer, viral infections and lung diseases” (BIOKINESIS, priority 2012, dated 2019).
Where a name gives a salt, the structure may show the parent alone.

target: T1, Human recombinant MKlp2 motor domain1-519, His tagged (Homo sapiens, UniProt O95235); assay: Microtubule stimulated ATPase activity of the MKlp2 motor domain (Kinesin ELIPA Assay Kit); format: biochemical; conditions: Table 3, 22° C., read-out: MKIp2 IC50
T1 construct: Human recombinant MKlp2 motor domain1-519, His tagged; His; purchased Cytoskeleton MP05
T1 sequence (O95235 1-519): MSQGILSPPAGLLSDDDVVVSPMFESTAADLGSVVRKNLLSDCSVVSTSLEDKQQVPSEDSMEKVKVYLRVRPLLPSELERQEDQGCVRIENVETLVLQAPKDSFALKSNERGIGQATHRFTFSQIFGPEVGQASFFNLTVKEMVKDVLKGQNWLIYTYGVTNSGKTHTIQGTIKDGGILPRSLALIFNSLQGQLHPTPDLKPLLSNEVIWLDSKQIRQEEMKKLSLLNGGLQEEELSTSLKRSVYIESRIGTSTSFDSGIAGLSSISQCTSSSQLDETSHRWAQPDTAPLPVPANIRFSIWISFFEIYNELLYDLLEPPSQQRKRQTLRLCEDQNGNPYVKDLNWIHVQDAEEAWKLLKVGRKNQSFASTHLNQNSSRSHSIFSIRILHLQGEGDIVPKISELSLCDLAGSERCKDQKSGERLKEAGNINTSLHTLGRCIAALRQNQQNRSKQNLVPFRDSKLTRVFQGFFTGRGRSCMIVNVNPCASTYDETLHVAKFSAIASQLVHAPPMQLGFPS
Experimental: Evaluation of Inhibitory Effects on the Microtubule Stimulated ATPase Activity of the MKlp2 Motor Domain.
MKlp2 ATPase activity was measured by monitoring real time free phosphate generation using the Kinesin ELIPA Assay Kit. The assay is based upon an absorbance shift (330 nm-360 nm) that occurs when 2-amino-6-mercapto-7-methylpurine ribonucleoside (MESG) is catalytically converted to 2-amino-6-mercapto-7-methylpurine in the presence of inorganic phosphate (Pi). One molecule of Pi will yield one molecule of 2-amino-6-mercapto-7-methylpurine in an essentially irreversible reaction.
All experiments were performed at 22° C.
Condition 1, compound preparation.
The compounds were dissolved in DMSO at 30× the maximum concentration to be tested. […] DMSO solutions were pipetted directly into each well.
Condition 2, reaction's “motor mix”.
The following were mixed sequentially in the specified order at RT to obtain the “motor mix”.
20 mL: 15 mM Pipes-NaOH pH 7.0, 10 mM MgCl2, 30 μM Tx (Buffer 1).
10 mL: 5× MSEG (ELIPA 1 reagent, Cat. # BK051).
10 mL: 2.5 mg/mL porcine brain microtubules (3×10 mg Cat. # MT002-XL resuspended in 12 mL of Buffer 1).
0.5 mL: 100×PNP (ELIPA 2 reagent, cat. # BK051).
Condition 3, reaction initiation.
The motor mix was pipetted into each well to obtain 80% of total volume. The reaction was initiated by adding a 20% of total volume of 5 mM ATP into each well.
The reactions were measured in a SpectraMax M2 (Molecular Devices) set in kinetic mode and 360 nm absorbance wavelength. The start protocol was 5 second rapid circular mixing, 21 readings, 30 seconds apart.

| Structure (SMILES) | IC50 |
| --- | --- |
| CN(C)c1ccncc1/C=C(\C#N)c1c[nH]c2ccc(Cl)cc12 [Example 6, (Z)-2-(5-chloro-1H-indol-3-yl)-3-(4-(dimethylamino)pyridin-3-yl)acrylonitrile] | 500 nM |
| CN(C)c1ccncc1/C=C(\C#N)c1c[nH]c2ccc(Cl)cc12 [Example 7, (Z)-2-(5-chloro-1H-indol-3-yl)-3-(4-(dimethylamino)pyridin-3-yl)acrylonitrile, Hydrochloride] | 800 nM |
| N#C/C(=C\c1cnccc1Oc1ccccc1)c1c[nH]c2ccc(Br)cc12 [Example 11, (Z)-2-(5-bromo-1H-indol-3-yl)-3-(4-phenoxypyridin-3-yl)acrylonitrile] | 500 nM |
| CCSc1ccncc1/C=C(\C#N)c1c[nH]c2ccc(Br)cc12 [Example 16, (Z)-2-(5-bromo-1H-indol-3-yl)-3-(4-(ethylthio)pyridin-3-yl)acrylonitrile] | 300 nM |
| N#C/C(=C\c1cnccc1-c1cccc(Br)c1)c1c[nH]c2ccc(Br)cc12 [Example 17, (Z)-2-(5-bromo-1H-indol-3-yl)-3-(4-(3-bromophenyl)pyridin-3-yl)acrylonitrile] | 300 nM |
| N#C/C(=C\c1cnccc1-c1cccc(Br)c1)c1c[nH]c2ccc(Cl)cc12 [Example 18, (Z)-3-(4-(3-bromophenyl)pyridin-3-yl)-2-(5-chloro-1H-indol-3-yl)acrylonitrile] | 300 nM |
| N#C/C(=C\c1cnccc1Sc1ccccc1)c1c[nH]c2ccc(Br)cc12 [Example 19, (Z)-2-(5-bromo-1H-indol-3-yl)-3-(4-(phenylthio)pyridin-3-yl)acrylonitrile] | 300 nM |
| COc1ccc(Sc2ccncc2/C=C(\C#N)c2c[nH]c3ccc(Br)cc23)cc1OC [Example 21, (Z)-2-(5-bromo-1H-indol-3-yl)-3-(4-((3,4-dimethoxyphenyl)thio)pyridin-3-yl)acrylonitrile] | 400 nM |
| N#C/C(=C\c1cnccc1-c1ccc(C(F)(F)F)cc1)c1c[nH]c2ccc(Br)cc12 [Example 25, (Z)-2-(5-bromo-1H-indol-3-yl)-3-(4-(4-(trifluoromethyl)phenyl)pyridin-3-yl)acrylonitrile] | 400 nM |
| N#C/C(=C\c1cnccc1-c1ccc(C(F)(F)F)cc1)c1c[nH]c2ccc(Cl)cc12 [Example 26, (Z)-2-(5-chloro-1H-indol-3-yl)-3-(4-(4-(trifluoromethyl)phenyl)pyridin-3-yl)acrylonitrile] | 500 nM |

Results, then the compound that gave them:

| IC50 | Structure (SMILES) |
| --- | --- |
| 300 nM | CCOc1ccncc1/C=C(\C#N)c1c[nH]c2ccc(OC)cc12 [Example 2, (Z)-3-(4-ethoxypyridin-3-yl)-2-(5-methoxy-1H-indol-3-yl)acrylonitrile] |
| 300 nM | N#C/C(=C\c1cnccc1Oc1ccccc1)c1c[nH]c2ccc(Cl)cc12 [Example 10, (Z)-2-(5-chloro-1H-indol-3-yl)-3-(4-phenoxypyridin-3-yl)acrylonitrile] |
| 100 nM | CCOc1ccncc1/C=C(\C#N)c1c[nH]c2ccc(Br)cc12 [Example 13, (Z)-2-(5-bromo-1H-indol-3-yl)-3-(4-ethoxypyridin-3-yl)acrylonitrile] |
| 200 nM | CC(C)Oc1ccncc1/C=C(\C#N)c1c[nH]c2ccc(Br)cc12 [Example 14, (Z)-2-(5-bromo-1H-indol-3-yl)-3-(4-isopropoxypyridin-3-yl)acrylonitrile] |
| 200 nM | N#C/C(=C\c1cnccc1SCc1ccccc1)c1c[nH]c2ccc(Br)cc12 [Example 20, (Z)-3-(4-(benzylthio)pyridin-3-yl)-2-(5-bromo-1H-indol-3-yl)acrylonitrile] |
| 90 nM | N#C/C(=C\c1cnccc1Oc1ccc(F)cc1)c1c[nH]c2ccc(Br)cc12 [Example 22, (Z)-2-(5-bromo-1H-indol-3-yl)-3-(4-(4-fluorophenoxy)pyridin-3-yl)acrylonitrile] |
| 90 nM | N#C/C(=C\c1cnccc1Oc1ccc(F)cc1)c1c[nH]c2ccc(Cl)cc12 [Example 23, (Z)-2-(5-chloro-1H-indol-3-yl)-3-(4-(4-fluorophenoxy)pyridin-3-yl)acrylonitrile] |
